In PubChem BioAssay (NCI):
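Assay format: 96-well plates, 48-hour exposure. TGI marks complete inhibition of growth.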

Tests used:
Test in all cases: inhibition of tumour cell growth, NCI panel, 48 h
786-0 renal = tested on: 786-0 renal
A498 renal = tested on: A498 renal
A549 NSCLC = tested on: A549 NSCLC
ACHN renal = tested on: ACHN renal
CAKI-1 renal = tested on: CAKI-1 renal
CCRF-CEM leukemia = tested on: CCRF-CEM leukemia
COLO 205 colon = tested on: COLO 205 colon
DU-145 prostate = tested on: DU-145 prostate
EKVX NSCLC = tested on: EKVX NSCLC
HCC-2998 colon = tested on: HCC-2998 colon
HCT-116 colon = tested on: HCT-116 colon
HCT-15 colon = tested on: HCT-15 colon
HL-60(TB) leukemia = tested on: HL-60(TB) leukemia
HOP-62 NSCLC = tested on: HOP-62 NSCLC
HS 578T breast = tested on: HS 578T breast
HT29 colon = tested on: HT29 colon
IGROV1 ovarian = tested on: IGROV1 ovarian
K-562 leukemia = tested on: K-562 leukemia
KM12 colon = tested on: KM12 colon
M14 melanoma = tested on: M14 melanoma
MALME-3M melanoma = tested on: MALME-3M melanoma
MCF7 breast = tested on: MCF7 breast
MDA-MB-231 breast = tested on: MDA-MB-231 breast
MDA-MB-435 = tested on: MDA-MB-435
MDA-N = tested on: MDA-N
MOLT-4 leukemia = tested on: MOLT-4 leukemia
NCI-H226 lung = tested on: NCI-H226 lung
NCI-H23 lung = tested on: NCI-H23 lung
NCI-H460 lung = tested on: NCI-H460 lung
NCI/ADR-RES ovarian = tested on: NCI/ADR-RES ovarian
OVCAR-4 ovarian = tested on: OVCAR-4 ovarian
OVCAR-5 ovarian = tested on: OVCAR-5 ovarian
OVCAR-8 ovarian = tested on: OVCAR-8 ovarian
PC-3 prostate = tested on: PC-3 prostate
RPMI-8226 leukemia = tested on: RPMI-8226 leukemia
SF-268 CNS = tested on: SF-268 CNS
SF-295 CNS = tested on: SF-295 CNS
SF-539 CNS = tested on: SF-539 CNS
SK-MEL-2 melanoma = tested on: SK-MEL-2 melanoma
SK-MEL-28 melanoma = tested on: SK-MEL-28 melanoma
SK-MEL-5 melanoma = tested on: SK-MEL-5 melanoma
SK-OV-3 ovarian = tested on: SK-OV-3 ovarian
SN12C renal = tested on: SN12C renal
SNB-19 CNS = tested on: SNB-19 CNS
SNB-75 CNS = tested on: SNB-75 CNS
SR leukemia = tested on: SR leukemia
SW-620 colon = tested on: SW-620 colon
T-47D breast = tested on: T-47D breast
TK-10 renal = tested on: TK-10 renal
U251 CNS = tested on: U251 CNS
UACC-257 melanoma = tested on: UACC-257 melanoma
UACC-62 melanoma = tested on: UACC-62 melanoma
UO-31 renal = tested on: UO-31 renal

O=C(CC(C(=O)c1ccc(F)cc1)c1ccsc1)c1cccs1 (stereo not drawn)
TGI (786-0 renal): > 100 µM
TGI (A498 renal): > 100 µM
TGI (A549 NSCLC): > 100 µM
TGI (ACHN renal): > 100 µM
TGI (CAKI-1 renal): > 100 µM
TGI (CCRF-CEM leukemia): > 100 µM
TGI (COLO 205 colon): > 100 µM
TGI (DU-145 prostate): > 100 µM
TGI (EKVX NSCLC): > 100 µM
TGI (HCC-2998 colon): > 100 µM
TGI (HCT-116 colon): > 100 µM
TGI (HCT-15 colon): > 100 µM
TGI (HL-60(TB) leukemia): > 100 µM
TGI (HOP-62 NSCLC): > 100 µM
TGI (HS 578T breast): > 100 µM
TGI (HT29 colon): > 100 µM
TGI (IGROV1 ovarian): > 100 µM
TGI (K-562 leukemia): > 100 µM
TGI (KM12 colon): > 100 µM
TGI (M14 melanoma): > 100 µM
TGI (MALME-3M melanoma): > 100 µM
TGI (MCF7 breast): > 100 µM
TGI (MDA-MB-231 breast): > 100 µM
TGI (MDA-MB-435): > 100 µM
TGI (MDA-N): > 100 µM
TGI (MOLT-4 leukemia): 89.7 µM
TGI (NCI-H226 lung): > 100 µM
TGI (NCI-H23 lung): > 100 µM
TGI (NCI-H460 lung): > 100 µM
TGI (NCI/ADR-RES ovarian): > 100 µM
TGI (OVCAR-4 ovarian): > 100 µM
TGI (OVCAR-5 ovarian): > 100 µM
TGI (OVCAR-8 ovarian): > 100 µM
TGI (PC-3 prostate): > 100 µM
TGI (RPMI-8226 leukemia): > 100 µM
TGI (SF-268 CNS): > 100 µM
TGI (SF-295 CNS): > 100 µM
TGI (SF-539 CNS): > 100 µM
TGI (SK-MEL-2 melanoma): > 100 µM
TGI (SK-MEL-28 melanoma): > 100 µM
TGI (SK-MEL-5 melanoma): > 100 µM
TGI (SK-OV-3 ovarian): > 100 µM
TGI (SN12C renal): > 100 µM
TGI (SNB-19 CNS): > 100 µM
TGI (SNB-75 CNS): > 100 µM
TGI (SR leukemia): > 100 µM
TGI (SW-620 colon): > 100 µM
TGI (T-47D breast): > 100 µM
TGI (TK-10 renal): > 100 µM
TGI (U251 CNS): > 100 µM
TGI (UACC-257 melanoma): > 100 µM
TGI (UACC-62 melanoma): > 100 µM
TGI (UO-31 renal): > 100 µM
